Values joined by “and” are separate entries in the source; they are usually repeats but may differ in a detail not shown here. Identical values can stand only once. Like-named read-outs stand apart in the source and are kept apart here. Where a SMILES comes first, the peptide text is derived from it. Bridges are numbered along the chain shown (N, C = ends).
Legend:
human C3b [1] = target: T1, human C3b (Homo sapiens, UniProt P01024); assay: SPR kinetic binding to immobilized human C3b; settings: K D determined as steady state affinity, read-out: K D, affinity hC3b, steady state affinity
T1 construct: purchased Complement Technology, Tyler, TX, USA

human C3b [2] = target: T1, human C3b; assay: SPR kinetic binding to immobilized human C3b; settings: for k a, affinity hC3b / k d, affinity hC3b / Kd: SPR, 1:1 Langmuir fit, average of 3 independent experiments, SD in brackets; for Kd: read-out: K D, affinity hC3b
Experimental: Experiments were conducted at 25 °C in HBST buffer (10 mM HEPES, 150 mM NaCl, and 0.05% Tween-20, pH 7.4; XanTec bioanalytics). Human C3b (Complement Technology, Tyler, TX, USA) was immobilized via amine-reactive coupling. […] Individual peptide samples were injected for 120 s, followed by a 180 s dissociation phase. […] Signals from the reference cell and buffer blank injections were subtracted within each dilution series to correct for buffer effects and injection artifacts. Data were fitted to a Langmuir 1:1 binding model to calculate association (k a) and dissociation (k d) rate constants, and the equilibration constant K D is calculated based on the equation: K D = k d/k a. In the case of Cp40 derivatives and Cp60, a single-cycle approach was used for kinetic analysis by injecting 5 increasing concentrations of each compound (0.5-40 nM) consecutively without a regeneration period in between injections. Individual injections within a cycle were 120 s long with a 5 min dissociation phase between injections. […] Analog Cp40 was included in each experimental series as a reference and internal control. Signals from the reference cell and buffer blank injections were subtracted to correct for buffer effects and injection artifacts. Kinetic data were processed in BiaEvaluation (Cytiva) using single-cycle evaluation by global fitting each data set to a Langmuir 1:1 binding model. The reported kinetic parameters (Tables and ) indicate the mean values and standard deviations of three independent experiments. SPR sensorgrams are provided in the Supporting Information.

[3] = system: alternative pathway complement activation; assay: Alternative pathway (AP) complement activation ELISA in normal human serum; assay type: biochemical; settings: diluted human serum (figure legends 1%; method 10% NHS)
Experimental: The inhibitory activity of selected peptides in preventing pathway-specific complement activation was evaluated using ELISA as previously described. All assays used normal human serum (NHS), pooled from five unrelated, anonymized healthy donors, obtained with informed consent according to the local ethics committee, and following the guidelines of the Declaration of Helsinki (Blutspendezentrum Basel, Switzerland).
The activity of selected peptides in preventing the activation of the alternative pathway was evaluated by analogy to the classical pathway ELISA described above, with some adjustments. Flat-bottom PolySorb 96-well plates (Thermo Fisher) were coated overnight at room temperature with 40 μg/mL lipopolysaccharide from Salmonella enteritidis (Sigma-Aldrich) in 0.1 M sodium carbonate buffer and washed 5 times with PBS-T. Serial dilutions of peptides were prepared in 10% (v/v) pooled NHS using HBBT + assay buffer (10 mM HEPES, 150 mM NaCl, pH 7.4, 0.5% BSA, 5 mM EGTA, 5 mM MgCl2, and 0.1% Tween-20), with samples diluted in 10% (v/v) NHS. Negative controls included each inhibitor in assay buffer alone, assay buffer only, and 10% (v/v) serum with 10 mM EDTA. HBBT+ with 10% (v/v) pooled NHS served as the 100%-control. Subsequent steps were performed as described above.

[4] = system: classical pathway complement activation; assay: Classical pathway (CP) complement activation ELISA in normal human serum; assay type: biochemical; settings: for IC50: CP ELISA
Experimental: The inhibitory activity of selected peptides in preventing pathway-specific complement activation was evaluated using ELISA as previously described. All assays used normal human serum (NHS), pooled from five unrelated, anonymized healthy donors, obtained with informed consent according to the local ethics committee, and following the guidelines of the Declaration of Helsinki (Blutspendezentrum Basel, Switzerland). To assess classical pathway activity, flat-bottom MaxiSorp 96-well plates (Thermo Fisher) were coated overnight at room temperature with 33 μg/mL IgM (Sigma) in a 0.1 M sodium carbonate buffer. Plates were washed 5 times with phosphate-buffered saline (Dubleccòs, Bioconcept) supplemented with 0.05% Tween-20 (PBS-T). Serial dilutions of peptides were prepared in 1% (v/v) NHS using HBBT++ assay buffer (10 mM HEPES, 150 mM NaCl, pH 7.4, 0.5% BSA, 0.15 mM CaCl2, 0.5 mM MgCl2, 0.1% Tween-20), with samples diluted in 1% (v/v) NHS. Negative controls included each inhibitor in assay buffer alone, assay buffer only, and 1% (v/v) NHS with 10 mM EDTA. HBBT++ with 1% (v/v) pooled NHS served as the 100%-control. After incubating for 1 h at 37 °C and shaking at 700 rpm, plates were washed 5 times with PBS-T. Next, 100 μL of biotinylated monoclonal mouse antihuman TCC antibody (1:1000, Hycult, clone: aE11) to detect terminal complement complexes was added to each well, followed by 1 h incubation at room temperature while shaking. After another 5 washes with PBS-T, 100 μL of HRP-conjugated NeutrAvidin (1:10,000, Invitrogen) was added to each well and incubated for 20 min at room temperature while shaking. Plates were washed 5 more times with PBS-T before adding 100 μL of 1-Step Turbo TMB-ELISA solution (Thermo Scientific) to each well. The reaction was allowed to develop until a light blue color appeared, and then stopped with 100 μL of 2 M sulfuric acid. Colorimetric detection was performed at 450 nm by using a plate reader (Synergy HT, Biotek). All assays were conducted in triplicate and normalized against 100% (no inhibitor, 1% (v/v) serum in buffer) and 0% (1% (v/v) serum in EDTA buffer) controls. In the cases of Cp60 and Cp40, 5% (v/v) NHS was used instead of 1% (v/v) NHS in some assays. Inhibition curves were fitted using nonlinear regression to a normalized variable slope model in Prism (v9-10, GraphPad).

[5] = first-in-human trials, cited from earlier work

T1 sequence (P01024 23-667 limits assumed): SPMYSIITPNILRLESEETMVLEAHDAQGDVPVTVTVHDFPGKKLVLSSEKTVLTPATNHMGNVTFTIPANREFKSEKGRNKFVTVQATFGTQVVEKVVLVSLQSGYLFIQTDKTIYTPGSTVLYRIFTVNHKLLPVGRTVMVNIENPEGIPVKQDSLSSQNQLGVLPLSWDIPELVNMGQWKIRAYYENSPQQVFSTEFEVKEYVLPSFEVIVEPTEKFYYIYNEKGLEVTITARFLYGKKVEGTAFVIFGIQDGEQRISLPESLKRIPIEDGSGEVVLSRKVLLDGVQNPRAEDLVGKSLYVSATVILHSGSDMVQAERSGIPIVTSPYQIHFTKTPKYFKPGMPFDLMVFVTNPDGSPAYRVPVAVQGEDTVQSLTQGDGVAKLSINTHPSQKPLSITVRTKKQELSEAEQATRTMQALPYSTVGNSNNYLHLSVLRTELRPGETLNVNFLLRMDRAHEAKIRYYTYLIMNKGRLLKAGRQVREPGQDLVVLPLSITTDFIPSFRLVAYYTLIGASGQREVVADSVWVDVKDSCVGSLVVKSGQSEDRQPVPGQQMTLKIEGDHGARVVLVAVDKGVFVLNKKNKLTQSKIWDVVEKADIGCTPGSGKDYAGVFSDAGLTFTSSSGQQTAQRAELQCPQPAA
T1 sequence (P01024 749-1663 partner limits assumed): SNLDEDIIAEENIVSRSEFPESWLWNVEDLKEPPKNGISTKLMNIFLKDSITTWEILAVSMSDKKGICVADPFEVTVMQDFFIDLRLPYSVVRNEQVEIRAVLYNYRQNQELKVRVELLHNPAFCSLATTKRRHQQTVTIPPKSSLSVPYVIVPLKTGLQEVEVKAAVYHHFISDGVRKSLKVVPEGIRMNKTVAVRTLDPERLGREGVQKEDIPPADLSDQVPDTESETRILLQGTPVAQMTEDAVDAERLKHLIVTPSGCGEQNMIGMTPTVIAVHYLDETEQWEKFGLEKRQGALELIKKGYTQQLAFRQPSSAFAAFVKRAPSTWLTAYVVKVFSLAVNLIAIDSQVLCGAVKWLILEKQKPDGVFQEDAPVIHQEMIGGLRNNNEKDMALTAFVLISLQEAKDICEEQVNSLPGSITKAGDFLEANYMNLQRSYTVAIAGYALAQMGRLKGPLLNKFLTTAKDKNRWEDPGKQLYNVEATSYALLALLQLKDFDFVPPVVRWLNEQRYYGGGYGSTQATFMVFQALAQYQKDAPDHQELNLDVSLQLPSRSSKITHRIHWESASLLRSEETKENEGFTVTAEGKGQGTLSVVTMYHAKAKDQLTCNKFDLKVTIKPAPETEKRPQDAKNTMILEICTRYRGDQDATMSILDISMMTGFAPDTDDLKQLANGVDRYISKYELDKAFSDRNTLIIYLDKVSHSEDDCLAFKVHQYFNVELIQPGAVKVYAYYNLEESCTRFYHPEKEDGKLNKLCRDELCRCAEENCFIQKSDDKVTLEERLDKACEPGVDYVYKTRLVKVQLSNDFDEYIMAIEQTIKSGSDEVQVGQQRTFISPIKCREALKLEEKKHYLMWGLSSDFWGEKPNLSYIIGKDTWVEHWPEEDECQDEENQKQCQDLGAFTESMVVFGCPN

Row | Kd (human C3b [1]) [nM] | fold improvement in affinity compared with Cp01 (human C3b [2]; K D ratio vs Cp01) [fold] | k a, affinity hC3b (human C3b [2]) | k d, affinity hC3b (human C3b [2]) | Kd (human C3b [2]) | k d, affinity hC3b (human C3b [2]; listed as Cp40 Val) | SMILES | IC50 [3] [nM] | IC50 ([4]; 1% diluted normal human serum, listed as Cp01-V3I) [nM] | fold enhanced potency for inhibiting complement activation in vitro vs Cp01 ([4]; IC50 ratio vs Cp01) | immunogenicity [5] | safety profile ([5]; single and multiple doses via different routes) | IC50 ([4]; 5% human serum) [nM]
1 | 545 |  |  |  |  |  | CC[C@@H](C)[C@@H]1NC(=O)[C@@H](NC(=O)[C@@H](NC(C)=O)[C@@H](C)CC)CSSC[C@@H](C(=O)N[C@H](C(N)=O)[C@@H](C)O)NC(=O)[C@H](CCCNC(=N)N)NC(=O)[C@H](Cc2c[nH]cn2)NC(=O)[C@H](C)NC(=O)CNC(=O)[C@H](Cc2c[nH]c3ccccc23)NC(=O)[C@H](CC(=O)O)NC(=O)[C@H](CCC(N)=O)NC(=O)[C@H](Cc2c[nH]c3ccccc23)NC1=O [Cp01-Val3aIle] |  |  |  |  |  | 
2 |  | ~10 | 8.8(0.1) 10^5 M^–1 s^–1 | 1.7(0.1) 10^–2 s^–1 | 20 nM and 19.8 nM |  | CC[C@H](C)[C@H](NC(C)=O)C(=O)N[C@H]1CSSC[C@@H](C(=O)N[C@H](C(N)=O)[C@@H](C)O)NC(=O)[C@H](CCCNC(=N)N)NC(=O)[C@H](Cc2c[nH]cn2)NC(=O)[C@H](C)NC(=O)CNC(=O)[C@H](Cc2c[nH]c3ccccc23)NC(=O)[C@H](CC(=O)O)NC(=O)[C@H](CCC(N)=O)NC(=O)[C@H](Cc2c[nH]c3ccccc23)NC(=O)[C@H]([C@@H](C)CC)NC1=O [Cp01-Val3Ile] (Ac-ICIWQDWGAHRCT-NH2; disulfide 2-12) | 200 | 430 | up to 40 fold |  |  | 
3 |  |  | 17.6(0.3) 10^5 M^–1 s^–1 | 0.1 10^–2 s^–1 | 0.7 nM | 0.1(0.0) 10^–2 s^–1 | CC[C@H](C)[C@H](NC(=O)[C@H](N)Cc1ccc(O)cc1)C(=O)N[C@H]1CSSC[C@@H](C(=O)N(C)[C@H](C(N)=O)[C@@H](C)CC)NC(=O)[C@H](CCCNC(=N)N)NC(=O)[C@H](Cc2c[nH]cn2)NC(=O)[C@H](C)NC(=O)CN(C)C(=O)[C@H](Cc2c[nH]c3ccccc23)NC(=O)[C@H](CC(=O)O)NC(=O)[C@H](CCC(N)=O)NC(=O)[C@H](Cc2cn(C)c3ccccc23)NC(=O)[C@H](C(C)C)NC1=O [Cp40, reference compound] |  |  |  | no evidence of drug-related immunogenicity or increase in antidrug antibodies | good safety profile | 158

— article PMC13181761, “New Analogs of the Compstatin Family of Clinical Complement Inhibitors with Low Picomolar Target Affinity” (Journal of Medicinal Chemistry, 2026)
